Measured values published in ChEMBL document CHEMBL1148071, “New cytotoxic peroxylactones from the marine sponge, Plakinastrella onkodes” (J Nat Prod, 1994).
≈ marks a conversion by molar mass, not a printed value.

Columns and labels:
[1] = target: T1, Protein kinase C alpha type (Homo sapiens, UniProt P17252); assay: Inhibition of PKCalpha
[2] = target: T2, Protein kinase C beta type (Homo sapiens, UniProt P05771); assay: Inhibition of PKCbeta1
Target sequence in this assay (P05771 whole entry): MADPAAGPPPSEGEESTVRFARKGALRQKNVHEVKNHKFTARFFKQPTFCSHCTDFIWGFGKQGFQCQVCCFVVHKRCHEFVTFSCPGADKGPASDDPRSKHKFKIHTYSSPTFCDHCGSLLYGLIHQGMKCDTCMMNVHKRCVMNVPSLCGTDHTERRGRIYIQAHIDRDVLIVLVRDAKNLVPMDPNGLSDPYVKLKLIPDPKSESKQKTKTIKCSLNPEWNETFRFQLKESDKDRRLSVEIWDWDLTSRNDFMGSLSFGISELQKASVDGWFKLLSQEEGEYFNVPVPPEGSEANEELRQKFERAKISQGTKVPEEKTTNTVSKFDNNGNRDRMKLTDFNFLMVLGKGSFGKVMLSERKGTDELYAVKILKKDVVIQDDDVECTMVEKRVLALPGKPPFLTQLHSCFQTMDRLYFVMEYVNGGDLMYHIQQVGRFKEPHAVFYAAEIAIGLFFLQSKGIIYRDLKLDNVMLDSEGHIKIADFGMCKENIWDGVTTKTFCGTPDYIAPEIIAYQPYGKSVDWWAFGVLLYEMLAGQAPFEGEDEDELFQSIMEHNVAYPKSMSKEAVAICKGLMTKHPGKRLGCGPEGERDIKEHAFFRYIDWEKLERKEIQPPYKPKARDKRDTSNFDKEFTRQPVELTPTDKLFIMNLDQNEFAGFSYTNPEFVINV

[3] = target: T2, Protein kinase C beta type; assay: Inhibition of PKCbeta2
Target sequence in this assay (P05771 whole entry): as above

[4] = target: T3, Protein kinase C delta type (Homo sapiens, UniProt Q05655); assay: Inhibition of PKCdelta
Target sequence in this assay (Q05655 whole entry): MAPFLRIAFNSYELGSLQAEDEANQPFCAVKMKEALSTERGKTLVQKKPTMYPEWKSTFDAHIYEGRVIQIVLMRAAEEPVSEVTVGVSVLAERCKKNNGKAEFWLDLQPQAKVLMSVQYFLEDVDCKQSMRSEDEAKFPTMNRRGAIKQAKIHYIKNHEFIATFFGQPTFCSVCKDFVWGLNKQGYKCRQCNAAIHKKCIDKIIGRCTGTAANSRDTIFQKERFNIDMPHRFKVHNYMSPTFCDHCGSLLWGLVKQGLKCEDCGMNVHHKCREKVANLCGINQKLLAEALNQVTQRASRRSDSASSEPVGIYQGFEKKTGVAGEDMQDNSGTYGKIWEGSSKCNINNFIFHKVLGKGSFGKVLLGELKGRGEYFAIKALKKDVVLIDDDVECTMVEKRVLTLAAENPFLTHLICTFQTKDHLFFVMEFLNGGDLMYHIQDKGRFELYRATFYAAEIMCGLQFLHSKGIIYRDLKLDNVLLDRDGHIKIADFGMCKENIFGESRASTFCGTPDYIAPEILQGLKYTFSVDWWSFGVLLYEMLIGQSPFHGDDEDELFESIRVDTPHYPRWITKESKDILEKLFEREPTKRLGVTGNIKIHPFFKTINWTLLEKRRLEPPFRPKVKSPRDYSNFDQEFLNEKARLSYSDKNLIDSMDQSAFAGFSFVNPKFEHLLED

A549 = assay: Cytotoxicity against human A549 cells; assay type: functional, cell-based
P388 = assay: Cytotoxicity against mouse P388 cells; assay type: functional, cell-based
[5] = Inhibition of cell adhesion in mouse EL-4.IL-2 cells; assay type: functional, cell-based
[6] = Induction of cell adhesion in mouse EL-4.IL-2 cells; assay type: functional, cell-based
[7] = target: T1, Protein kinase C alpha type; assay: Agonist activity at PKCalpha at 50 ug/ml; assay type: functional
[8] = target: T2, Protein kinase C beta type; assay: Agonist activity at PKCbeta1 at 50 ug/ml; assay type: functional
Target sequence in this assay (P05771 2-671 limits assumed): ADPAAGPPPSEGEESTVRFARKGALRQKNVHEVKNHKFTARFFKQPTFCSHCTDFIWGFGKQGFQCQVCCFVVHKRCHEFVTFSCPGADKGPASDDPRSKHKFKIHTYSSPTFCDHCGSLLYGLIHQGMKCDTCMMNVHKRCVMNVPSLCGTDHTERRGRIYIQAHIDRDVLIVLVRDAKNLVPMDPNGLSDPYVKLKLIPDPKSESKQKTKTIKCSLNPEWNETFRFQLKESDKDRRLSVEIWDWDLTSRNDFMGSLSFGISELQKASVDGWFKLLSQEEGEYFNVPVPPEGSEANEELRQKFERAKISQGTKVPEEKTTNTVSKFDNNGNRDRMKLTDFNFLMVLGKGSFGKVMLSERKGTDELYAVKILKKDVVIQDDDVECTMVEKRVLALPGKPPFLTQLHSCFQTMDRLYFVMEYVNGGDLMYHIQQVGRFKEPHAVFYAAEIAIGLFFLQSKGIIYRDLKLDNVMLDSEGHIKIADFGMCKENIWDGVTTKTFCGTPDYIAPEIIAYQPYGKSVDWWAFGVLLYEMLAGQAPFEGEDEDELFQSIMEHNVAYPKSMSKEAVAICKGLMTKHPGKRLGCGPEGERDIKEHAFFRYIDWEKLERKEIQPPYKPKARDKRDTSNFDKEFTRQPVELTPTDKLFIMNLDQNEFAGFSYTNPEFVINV

[9] = target: T2, Protein kinase C beta type; assay: Agonist activity at PKCbeta2 at 50 ug/ml; assay type: functional
Target sequence in this assay (P05771 2-671 limits assumed): as above

[10] = target: T3, Protein kinase C delta type; assay: Agonist activity at PKCdelta at 50 ug/ml; assay type: functional
Target sequence in this assay (Q05655 whole entry, looked up): as the sequence (Q05655 whole entry) above

[11] = target: T4, Protein kinase C epsilon type (Homo sapiens) (UniProt Q02156); assay: Agonist activity at PKCepsilon at 50 ug/ml; assay type: functional
T4 sequence (whole entry): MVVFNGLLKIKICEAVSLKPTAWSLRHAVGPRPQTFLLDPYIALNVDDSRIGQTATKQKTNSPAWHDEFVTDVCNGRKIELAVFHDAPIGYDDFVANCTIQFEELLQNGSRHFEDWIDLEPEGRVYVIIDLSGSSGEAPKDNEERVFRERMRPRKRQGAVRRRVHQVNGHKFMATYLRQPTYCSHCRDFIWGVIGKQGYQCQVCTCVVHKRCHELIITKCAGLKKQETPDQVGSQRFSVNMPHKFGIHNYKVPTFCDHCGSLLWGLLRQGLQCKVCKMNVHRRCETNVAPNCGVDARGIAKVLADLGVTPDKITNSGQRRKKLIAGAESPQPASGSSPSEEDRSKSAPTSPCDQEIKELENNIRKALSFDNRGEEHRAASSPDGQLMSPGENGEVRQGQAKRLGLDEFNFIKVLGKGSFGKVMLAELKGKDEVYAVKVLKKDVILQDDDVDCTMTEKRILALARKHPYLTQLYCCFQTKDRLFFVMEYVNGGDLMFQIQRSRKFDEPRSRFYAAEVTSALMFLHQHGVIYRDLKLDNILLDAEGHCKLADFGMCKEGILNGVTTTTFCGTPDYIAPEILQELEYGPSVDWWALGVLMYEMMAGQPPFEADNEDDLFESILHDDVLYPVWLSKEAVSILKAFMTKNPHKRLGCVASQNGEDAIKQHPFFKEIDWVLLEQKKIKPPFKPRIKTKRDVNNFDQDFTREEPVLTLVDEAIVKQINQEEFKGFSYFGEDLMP

[12] = target: Protein kinase C gamma type (Homo sapiens) (UniProt P05129); assay: Agonist activity at PKCgamma at 50 ug/ml; assay type: functional

Molecule `CCCCCCCCCCCCCCCC[C@@]1(OC)C=C[C@@H](CC(=O)OC)OO1` [CHONDRILLIN] has an IC50 [1] of 87.2 µM, an IC50 [2] of 119 µM and an IC50 [3] of 119 µM. It also gave an IC50 [4] of 55.7 µM.

`COC(=O)C[C@@]1(C)C[C@](C)(CC(C)CCCCCCc2ccccc2)OO1` (some centres undefined) [EPIPLAKINIC ACID E METHYL ESTER] showed an IC50 (A549) of 2 µg/mL (≈ 5.31 µM), an IC50 (P388) of 2.5 µg/mL (≈ 6.64 µM) and an IC50 [5] of 4.6 µg/mL (≈ 12.2 µM).

Work on `CC(CCCCCCCCc1ccccc1)C[C@]1(C)C[C@]2(C)OC(=O)C[C@@H]2OO1` (some centres undefined) [PLAKORTOLIDE B] yielded an IC50 (A549) of 1.3 µg/mL (≈ 3.23 µM), an IC50 (P388) of 0.4 µg/mL (≈ 0.994 µM) and an IC50 [6] of 4.4 µg/mL (≈ 10.9 µM). The Activity [7] was -19%, the Activity [8] was -13% and the Activity [9] was -27%. For the same molecule, the Activity [10] was -9%, the Activity [11] was -38% and the Activity [12] was -9%.

`CC(CCCCCCc1ccccc1)CC(C)C[C@]1(C)C[C@]2(C)OC(=O)C[C@@H]2OO1` (some centres undefined) [PLAKORTOLIDE D] showed an IC50 (A549) of 3.8 µg/mL (≈ 9.12 µM), an IC50 (P388) of 0.8 µg/mL (≈ 1.92 µM) and an IC50 [5] of 15.8 µg/mL (≈ 37.9 µM).
